# Experimental data from paper PMC8614864, “Bioengineered System for High Throughput Screening of Kv1 Ion Channel Blockers” (Bioengineering, 2021).
# Changes are numbered by the printed parent chain. Where two headings read alike, the source gives them in different places. Ends that are not written are not given here. linker L1 (45 aa) = not defined here
# T1: KcsA-Kv1.3 hybrid potassium channel tagged with a red fluorescent protein (TagRFP) (Homotetramer. Turret swap limits are not printed: taken from the known KcsA-Kv1.3 chimera design (ref. 8), KcsA 52-64 replaced by the gap-free aligned Kv1.3 segment (the same stretch is expected in mo))
# T1 chain: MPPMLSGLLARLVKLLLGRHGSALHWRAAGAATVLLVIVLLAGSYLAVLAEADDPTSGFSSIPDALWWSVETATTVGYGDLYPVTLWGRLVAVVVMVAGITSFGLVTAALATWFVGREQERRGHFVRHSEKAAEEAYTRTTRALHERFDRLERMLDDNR
# B1: agitoxin 2 tagged N-terminally with eGFP (ligand)
# chain: GVPINVSCTGSPQCIKPCKDAGMRFGKCMNRKCHCTPK
# notes: The analogous ChTx-GFP was purified on Ni-NTA, so a His tag is likely here too; also called AgTx2-GFP; AgTx-GFP; source: design and production described earlier [14]; (plasmid pET23d-GFP-L1-AgTx2); not shown: eGFP (with the 45-aa linker L1), N-terminal, kept
# B2: kaliotoxin 1 (peptide)
# chain: B1 chain with P3E, S7K, T9S, I15L
# notes: also called KTx; source: recombinant, produced as described earlier [12] from plasmid pET23d-MalE-L1-KTx
# B3: charybdotoxin tagged N-terminally with eGFP (ligand)
# chain: QFTNVSCTTSKECWSVCQRLHNTSRGKCMNKKCRCYS
# notes: also called ChTx-GFP; GFP-L1-ChTx; source: E. coli Rosetta-gami (DE3) pLysS, pET23d-GFP-L1-ChTx, purified (Ni-NTA, PD-10 desalting); not shown: eGFP (with the linker L1), N-terminal, kept
# B4: agitoxin 2 (peptide)
# chain: B1 chain
# notes: also called AgTx2; source: recombinant, produced as described earlier [12] from plasmid pET23d-MalE-L1-AgTx2
# Tests used:
# [1] = tested on: Kv1 channels; details: ref 17; cited from earlier work
# Source text: Consequently, our flow cytometry approach can be used to screen unlabeled small organic blockers for their binding with the external lining of the pore. If necessary, FP-peptide blockers can be substituted in the presented assay by small fluorescently labeled ligands, and their affinities can be estimated by direct titration, using the approach ...
# [2] = target: Kv1.3; details: cited from earlier work
# Method: Table 1 Kd values obtained by direct titration of GFP-toxins or by their displacement with unlabeled ones and their comparison to our previous and literature data. | column: Kd or IC50, nM / Literature Data || Our approach was evaluated using several Kv1.3 ligands with known dissociation constants. These are unlabeled recombinant channel blockers from scorpion venom, AgTx2, ChTx, KTx and labeled GFP-tagged chimeras AgTx-GFP and ChTx-GFP. […] This is close to the values reported earlier: 0.21 nM for AgTx2-GFP in our system and 1.8–2.6 nM for ChTx (Table 1).
# [3] = target: KcsA-Kv1.3; details: ref Our Previous Data (Table 1); cited from earlier work
# Method: Table 1 Kd values obtained by direct titration of GFP-toxins or by their displacement with unlabeled ones and their comparison to our previous and literature data. | column: Dissociation Constants, nM * / Our Previous Data || Our approach was evaluated using several Kv1.3 ligands with known dissociation constants. These are unlabeled recombinant channel blockers from scorpion venom, AgTx2, ChTx, KTx and labeled GFP-tagged chimeras AgTx-GFP and ChTx-GFP. […] This is close to the values reported earlier: 0.21 nM for AgTx2-GFP in our system and 1.8–2.6 nM for ChTx (Table 1).
# [4] = tested on: KcsA-Kv1.3-RFP; assay: Displacement of GFP-labeled toxins by unlabeled toxins on spheroplasts, flow cytometry; assay type: binding; details: for Kd: displacement of AgTx2-GFP, Cheng-Prusoff, Mean ± SD, read-out: Apparent dissociation constant (Kap)
# Method: (§1) Spheroplasts were prepared according to the previously developed protocol. Briefly, E. coli cells (BL21 (DE3) strain) transformed with pET28a-KcsA-Kv1.3-RFP plasmid were cultivated in a minimal M9 medium at 37 °C up to OD560 = 0.8, then induced with 50 μM IPTG and further grown for 18 h. Cells were harvested by centrifugation (5000× g, 10 min, 4 °C), incubated in buffer A (10 mM Tris–HCl, pH 8.0, 0.5 m sucrose) containing lysozyme (20 μg/mL) for 7 min on ice, then diluted twofold with buffer B (10 mM Tris–HCl, pH 8.0, 0.3 mM ethylenediamine tetraacetic acid) and further incubated for 20 min. Then MgCl2 was added to a final concentration of 10 mM to stabilize the spheroplasts. Obtained in this way, the spheroplast suspension has OD560 of about 0.5 and was diluted for binding assay as described further.
# (§2) For ligand binding analysis, a series of ligand dilutions were prepared in 12 × 75 mm flow cytometry test tubes. For this, 45 µL of toxin solution with a ten times higher concentration than the maximal concentration on titration curve was prepared. This solution was serially diluted with 3.16-fold step (13.9 µL of toxin solution + 30 µL buffer). These toxin dilutions were supplemented with 270 µL of spheroplast suspension at 10^6 cells/mL to give 300 µL final reaction mixtures. For analysis of displacement of GFP-labeled toxins by unlabeled toxins, spheroplast suspensions were supplemented with 1.1× concentration of GFP-labeled toxin before mixing with unlabeled toxin dilutions. All dilutions were made in a binding buffer: 0.25 M sucrose, […], 2 mM KCl, 50 mM NaCl, 10 mM MgCl2, 0.2% BSA and 50 mM Tris–HCl, pH 7.5.
# (§3) To ensure equilibrium conditions, we analyzed samples after 90–120 min of incubation without removing toxins. Data acquisition was carried out with FC-500 flow cytometer (Beckman Coulter, Brea, CA, USA) using 488 nm excitation for both GFP and RFP and fluorescence detection with FL1 (505–545 nm) and FL3 (610–630 nm) channels for GFP and RFP, respectively. To minimize background fluorescence, samples were run at low speed that gave approx. 100–500 events/s. Events were triggered by side scatting (SSC) so that RFP-labeled cells constituted approx. 30% of events (Figure 2). Remaining events were also present in the samples of filtered binding buffer without cells, so were likely to be related to system noise (either electronic or optical) but not to the dim spheroplasts.
# (§4) Automated data analysis was performed by a dedicated script after pre-processing with commercial software. The script was available in user-friendly Jupyter notebook format where data were processed stepwise, and user input-output was realized through an internet browser. This script is designed to process multiple datasets at once and can be easily adjusted for someone’s actual needs.
# Initial preprocessing was done with used FlowJo v10 software (Treestar Inc., Wilmington, DE, USA). This was used for gating on cells by forward and side scatter, followed by gating of RFP-positive events (Figure 1) and exporting of gated data in FCS format. This step was preferable since it allowed one to convert data into a conventional FCS format (our flow cytometer import data in LMD file format) and to filter out off-target events such as system noise, cell debris, clumped and untransfected cells (without Kv1.3-RFP in our case). We also created a script for this preprocessing but found it more complicated and less robust than commercial software. […]
# [5] = tested on: hybrid Kv1-KcsA channels expressed in the E. coli membrane; details: laser scanning confocal microscopy, competitive binding; cited from earlier work
# Source text: In order to estimate the possibilities and limitations of the assay, the molecular details of blocker interaction with a natural and chimeric channel should be considered. The common feature of the peptide blocker binding is an occlusion of the pore with the side chain of a lysine residue, which is accompanied by the formation of multiple bonds between the peptide and amino acid residues surrounding the pore. Since the pore occlusion is the essential feature of any Kv1-channel blocker interacting with a channel at the extracellular side, the binding sites of peptide blockers and sm ...
# [6] = tested on: KcsA-Kv1.3-RFP; assay: Direct titration of GFP-labeled toxins on spheroplasts by flow cytometry; assay type: binding
# Method: as §1, §2, §3, §4
# Initial preprocessing was done with used FlowJo v10 software (Treestar Inc., Wilmington, DE, USA). This was used for gating on cells by forward and side scatter, followed by gating of RFP-positive events (Figure 1) and exporting of gated data in FCS format. This step was preferable since it allowed one to convert data into a conventional FCS format (our flow cytometer import data in LMD file format) and to filter out off-target events such as system noise, cell debris, clumped and untransfected cells (without Kv1.3-RFP in our case). We also created a script for this preprocessing but found it more complicated and less robust than commercial software.
# Filtered data were processed stepwise by a dedicated script, written in the Python programming language and available as a Jupyter notebook for running either on a local machine or in a kaggle data cloud (https://www.kaggle.com/georgesharonov/fcsgroupfit, accessed and executed on 14 November 2021). Data processing workflow was designed for high throughput analysis by processing all similar data in a single script execution. The processing steps were detailed within the notebook. […]
# [7] = target: T1, KcsA-Kv1.3 hybrid potassium channel …; assay: flow cytometry on cells; same direct titration data; conventional analysis: mean or median of the RFP-positive minus the RFP-negative population; no saturation up to 100 nM, approach called inconsistent by the authors; details: one partner purified
# [8] = target: T1, KcsA-Kv1.3 hybrid potassium channel …; assay: flow cytometry on cells; details: one partner purified
# [9] = target: T1, KcsA-Kv1.3 hybrid potassium channel …; assay: flow cytometry on cells; same direct titration data; slope of GFP against RFP by linear fit of all RFP-positive events, one-site fit; details: one partner purified
molecule,measurement,setting,value
Nc1ccncc1 [4-aminopiridine],inhibition of Kv1 channels,[1],inhibit Kv1 channels from the inside of the cell
"CC[C@H](C)[C@@H]1NC(=O)[C@@H]2CSSC[C@@H]3NC(=O)[C@H](CCCCN)NC(=O)[C@H](CCCNC(=N)N)NC(=O)[C@H](CC(N)=O)NC(=O)[C@H](CCSC)NC(=O)[C@H](CSSC[C@H](NC(=O)[C@H](CO)NC(=O)[C@@H](NC(=O)[C@H](CC(N)=O)NC(=O)[C@@H](NC(=O)[C@@H]4CCCN4C(=O)[C@@H](NC(=O)CN)C(C)C)[C@@H](C)CC)C(C)C)C(=O)N[C@@H]([C@@H](C)O)C(=O)NCC(=O)N[C@@H](CO)C(=O)N4CCC[C@H]4C(=O)N[C@@H](CCC(N)=O)C(=O)N2)NC(=O)[C@H](CCCCN)NC(=O)CNC(=O)[C@H](Cc2ccccc2)NC(=O)[C@H](CCCNC(=N)N)NC(=O)[C@H](CCSC)NC(=O)CNC(=O)[C@H](C)NC(=O)[C@H](CC(=O)O)NC(=O)[C@H](CCCCN)NC(=O)[C@H](CSSC[C@@H](C(=O)N[C@H](C(=O)N2CCC[C@H]2C(=O)N[C@@H](CCCCN)C(=O)O)[C@@H](C)O)NC(=O)[C@H](Cc2c[nH]cn2)NC3=O)NC(=O)[C@@H]2CCCN2C(=O)[C@H](CCCCN)NC1=O [AgTx2, agitoxin 2]",Kd or IC50 (literature),[2]; ref 8,6.4 nM
same,Kd or IC50 (literature),[2]; ref 18,0.004 nM
same,Kd or IC50 (literature),[2]; ref 19,0.2 nM
same,Kd,[3],0.21 nM
same,inhibition of binding of labeled ligands by excess unlabeled ligand,[4]; 100 nM unlabeled AgTx2,completely inhibited
same,IC50,"[4]; displacement of 1 nM AgTx2-GFP, Figure 4B curve, read-out: IC50 (displacement of 50% of the labeled ligand)",0.7 nM
same,Kd,[4]; n = 2,0.1 ± 0.02 nM
same,fold by which binding constant is lower than that of the labeled variant,[4]; unlabeled toxin vs its GFP-labeled variant,2–4 times
"CC[C@H](C)[C@H](NC(=O)[C@H](CCC(=O)O)NC(=O)[C@@H](NC(=O)CN)C(C)C)C(=O)N[C@@H](CC(N)=O)C(=O)N[C@H](C(=O)N[C@@H](CCCCN)C(=O)N[C@H]1CSSC[C@@H]2NC(=O)[C@H](CCCCN)NC(=O)CNC(=O)[C@H](Cc3ccccc3)NC(=O)[C@H](CCCNC(=N)N)NC(=O)[C@H](CCSC)NC(=O)CNC(=O)[C@H](C)NC(=O)[C@H](CC(=O)O)NC(=O)[C@H](CCCCN)NC(=O)[C@@H]3CSSC[C@@H](C(=O)N[C@H](C(=O)N4CCC[C@H]4C(=O)N[C@@H](CCCCN)C(=O)O)[C@@H](C)O)NC(=O)[C@H](Cc4c[nH]cn4)NC(=O)[C@H](CSSC[C@H](NC(=O)[C@H](CCC(N)=O)NC(=O)[C@@H]4CCCN4C(=O)[C@H](CO)NC(=O)CNC(=O)[C@H](CO)NC1=O)C(=O)N[C@@H](CC(C)C)C(=O)N[C@@H](CCCCN)C(=O)N1CCC[C@H]1C(=O)N3)NC(=O)[C@H](CCCCN)NC(=O)[C@H](CCCNC(=N)N)NC(=O)[C@H](CC(N)=O)NC(=O)[C@H](CCSC)NC2=O)C(C)C [KTx, kaliotoxin 1]",Kd or IC50 (literature),[2]; ref 21,0.65 nM
same,Kd or IC50 (literature),[2]; ref 22,0.02 nM
same,Kd or IC50 (literature),[2]; ref 23,0.1 to 2 nM
same,Kd,[3],0.78 nM
same,Kd,[4]; n = 3,0.04 ± 0.02 nM
CC(C)/N=c1\cc2n(-c3ccc(Cl)cc3)c3ccccc3nc-2cc1Nc1ccc(Cl)cc1 [clofazimine],inhibition of Kv1 channels,[1],inhibit Kv1 channels from the inside of the cell
CC[N+](CC)(CC)CC [tetraethylammonium],competitive ligand for Kv1-KcsA hybrid channels,[5],competitive ligand
"AgTx2-GFP: AgTx2 tagged N-terminally with eGFP, moieties separated by a 45-aa linker L1; fluorescent probe ({eGFP-linker L1 (45 aa)}-GVPINVSCTGSPQCIKPCKDAGMRFGKCMNRKCHCTPK; ends and bridges not checked)","Slope, nonspecific binding","[6]; 1 nM labeled toxin + 100 nM AgTx, fitting of all events",0.49
same,"Slope, nonspecific binding","[6]; 1 nM labeled toxin + 100 nM AgTx, fitting of reduced data",0.23
same,Slope (proportional to occupied receptor fraction),"[6]; 1 nM labeled toxin, fitting of all events",0.88
same,Slope (proportional to occupied receptor fraction),"[6]; 1 nM labeled toxin, fitting of reduced data",0.82
same,"Slope, nonspecific binding","[6]; 10 nM labeled toxin + 100 nM AgTx, fitting of all events",0.54
same,Slope (proportional to occupied receptor fraction),"[6]; 10 nM labeled toxin, fitting of all events",0.95
same,Slope (proportional to occupied receptor fraction),"[6]; 10 nM labeled toxin, fitting of reduced data",0.9
same,Kd,[3],0.21 nM
B1,"Kd by the conventional mean/median analysis, which the authors reject",[7],6 nM
same,Kd,[8],0.2 nM
B2,Kd,[8],0.04 nM
B3,"Kd by the conventional mean/median analysis, which the authors reject",[7],32 nM
same,Kd,[9],0.86 nM
B4,Kd,[8],0.1 nM
